Laboratory results taken from US7799775B2, “Pyrimidine derivatives” (ASKA Pharmaceutical Co., Ltd., priority 2004, dated 2010).
Structures can show the parent of a compound that is named as a salt.

Columns and labels:
human 5-HT1A receptor = biological target: T1, human 5-HT1A receptor (Homo sapiens, UniProt P08908); assay: Affinity measurement of the compounds to human 5-HT1A receptor (in vitro), [3H]8-OH-DPAT binding; conditions: test compound 100 nmols/L; [3H]8-OH-DPAT 0.25 nmols/L; CHO cell membrane expressing human 5-HT1A receptor; read-out: Percent Inhibition (%) on Each Receptor's Binding at 10^−7M, 5-HT1A
T1 construct: purchased Packard Bioscience; host or cells: CHO cells (membrane preparation)
T1 sequence (P08908 1-422): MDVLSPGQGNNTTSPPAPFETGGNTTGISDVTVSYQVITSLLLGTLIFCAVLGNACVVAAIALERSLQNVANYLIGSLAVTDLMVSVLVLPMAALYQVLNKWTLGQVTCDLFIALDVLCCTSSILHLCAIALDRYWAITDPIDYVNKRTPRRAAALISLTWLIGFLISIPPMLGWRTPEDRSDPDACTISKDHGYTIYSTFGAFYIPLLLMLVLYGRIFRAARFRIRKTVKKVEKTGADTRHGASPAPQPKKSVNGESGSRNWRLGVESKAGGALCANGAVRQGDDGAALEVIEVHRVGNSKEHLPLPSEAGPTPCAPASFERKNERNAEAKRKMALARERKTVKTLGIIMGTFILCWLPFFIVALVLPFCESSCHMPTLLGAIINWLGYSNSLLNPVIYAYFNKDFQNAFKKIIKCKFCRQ
Description: (1) Affinity Measurement of the Compounds to Human 5-HT1A Receptor (in Vitro)
CHO cell membrane sample in which human 5-HT1A receptor was expressed (purchased from Packard Bioscience) 0.25 mL (about 50 units) was added to 24.75 mL of incubation buffer solution A (an aqueous solution of a mixture of 50 mmols/L of Tris-hydrochloric acid, 10 mmols/L of magnesium sulfate, 0.5 mmols/L of EDTA and 0.1% ascorbic acid, whose pH was adjusted to 7.4 at 27° C. with 1N-aqueous sodium hydroxide solution), and labeled as membrane sample suspension A. Separately, each test compound was made into 270 μmols/L DMSO solution and diluted to a prescribed concentration with the incubation buffer solution A, to provide a compound solution.
A piece of polypropylene tube was charged with 20 μL of [^3H]8-OH-DPAT (8-hydroxy-2-(di-n-propylamino)tetralin; purchased from Daiichi Pure Chemicals Co., Ltd.) (The concentration of the [^3H]8-OH-DPAT had been advancedly adjusted to render its concentration in the reaction mixture to 0.25 nmols/L) and 20 μL of one of the compound solutions. Further 500 μL of the membrane sample suspension A was added into the tube, followed by 60 minutes' incubation at 27° C. The reaction was terminated by rapid filtration of the reaction mixture through GF/C filter which had been advancedly immersed in a solution formed by adding to the incubation buffer solution A polyethyleneimine to a concentration of 0.3%, using Brandel cell harvester. Then the filter was washed with about 5 mL of 50 mmols/L of Tris-hydrochloric acid which had been cooled to 4° C. The filter was once again washed after similar operation.
(§1) Residual radioactivity on the filter was measured with liquid scintillation counter (Aloka Co., LSC-5100). Percent inhibition (%) of each test compound to binding of [^3H]8-OH-DPAT to 5-HT1A receptor at a concentration of 0.25 nmols/L, i.e., affinity of each test compound to 5-HT1A receptor, can be calculated according to the following expression. The ratio of non-specific binding was calculated by measuring the radioactivity in case of using 8-OH-DPAT at a concentration of 10 μmols/L, with which value the measured value of each test compound was compensated.
(§2) Affinity of each test compound to 5-HT1A receptor and 5-HT3 receptor at a concentration of 100 nmols/L were as shown in the following Tables A-1 and A-2. BRL-43694 and tropisetron (ICS 205-930), which were used in measuring affinity of those compounds to 5-HT3 receptor, have the following structures: […]

human 5-HT3 receptor = biological target: T2, human 5-HT3 receptor (Homo sapiens, UniProt P46098); assay: Measurement of affinity to human 5-HT3 receptor (in vitro), [3H]BRL-43694 binding; conditions: test compound 100 nmols/L; [3H]BRL-43694 0.5 nmols/L; HEK-293 cell membrane expressing human 5-HT3 receptor; read-out: Percent Inhibition (%) on Each Receptor's Binding at 10^−7M, 5-HT3
T2 construct: purchased BIOLINKS K.K; host or cells: HEK-293 cells (membrane preparation)
T2 sequence (P46098 24-478): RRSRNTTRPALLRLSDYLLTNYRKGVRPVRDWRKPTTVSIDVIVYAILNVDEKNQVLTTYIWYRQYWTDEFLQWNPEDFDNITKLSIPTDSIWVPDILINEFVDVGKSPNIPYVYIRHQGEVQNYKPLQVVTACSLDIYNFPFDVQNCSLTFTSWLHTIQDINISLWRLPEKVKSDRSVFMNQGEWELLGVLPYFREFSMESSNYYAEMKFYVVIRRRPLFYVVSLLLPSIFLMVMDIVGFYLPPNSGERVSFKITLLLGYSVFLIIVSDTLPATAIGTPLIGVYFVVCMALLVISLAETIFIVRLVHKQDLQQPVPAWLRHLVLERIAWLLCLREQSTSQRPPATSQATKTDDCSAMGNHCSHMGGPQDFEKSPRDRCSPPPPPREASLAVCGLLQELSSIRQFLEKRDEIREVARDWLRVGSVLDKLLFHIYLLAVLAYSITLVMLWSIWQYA
Description: (2) Measurement of Affinity of Each Test Compound to Human 5-HT3 Receptor (in Vitro):
HEK-293 cell membrane sample in which human 5-HT3 receptor was expressed (purchased from BIOLINKS K.K.) 0.05 mL (about 50 microassay) was added to 24.95 mL of incubation buffer solution B (an aqueous solution of a mixture of 50 mmols/L of Tris-hydrochloric acid, 5 mmols/L of magnesium chloride and 1 mmol/L of EDTA, whose pH was adjusted to 7.5 at 25° C. with 1N-aqueous sodium hydroxide solution) and homogenized, to provide a membrane sample suspension B. Separately, each test compound was made into 270 μmols/L of DMSO solution and diluted to a prescribed concentration with the incubation buffer solution B to provide a compound solution.
A piece of polypropylene tube was charged with 20 μL of [^3H]BRL-43694 (purchased from Daiichi Pure Chemicals Co., Ltd.) (The concentration of [^3H]BRL-43694 had been advancedly adjusted to render its concentration in the reaction mixture to 0.5 nmols/L.) and 20 μL of one of the compound solutions. Further 500 μL of the membrane sample suspension B was added into the tube, followed by 60 minutes' incubation at 25° C. The reaction was terminated by rapid filtration of the reaction mixture through GF/B filter which had been advancedly immersed in a solution formed by adding to the incubation buffer solution B polyethyleneimine to a concentration of 0.5%, using Brandel cell harvester. Then the filter was washed with about 5 mL of 50 mmols/L of Tris-hydrochloric acid which had been cooled to 4° C. The filter was once again washed after similar operation.
as §1, with “(ALOKA CO., LTD.” for “(Aloka Co.,”, “[^3H]BRL-43694” for “[^3H]8-OH-DPAT”, “5-HT3” for “5-HT1A”, “0.5” for “0.25”, “tropisetron: (ICS 205-930)” for “8-OH-DPAT”
as §2

Compound	inhibition at 0.1 µM (human 5-HT1A receptor) [%]	inhibition at 0.1 µM (human 5-HT3 receptor) [%]
c1ccc(CO[C@@H]2C[C@H]3CN(c4nccc5sccc45)CCN3C2)cc1 [Production Example 117, 4-((7R,8aS)-7-benzyloxyoctahydropyrrolo[1,2-a]pyrazin-2-yl)thieno-[3,2-c]pyridine]	57.7	10.6
Cn1c(NCCCN2CCN(c3ccc4ccccc4n3)CC2)nc2ccccc2c1=O [Example 7-30, 3-methyl-2-[3-(4-quinolin-2-ylpiperazin-1-yl)propylamine]-3H-quinazolin-4-one]	73.5	92.4
Cc1cc(N2CCN(CCCNc3nc4c(c(=O)[nH]3)CCCC4)CC2)nc2ccccc12 [Example 5-3, 2-[3-[4-(4-methylquinolin-2-yl)piperazin-1-yl]propylamino]-5,6,7,8-tetrahydro-3H-quinazolin-4-one]	76	74.5
Fc1ccc(COc2ccc3ccnc(N4CCNCC4)c3c2)cc1 [Production Example 98, 7-(4-fluorobenzyloxy)-1-piperazin-1-ylisoquinoline]	88.2	60.8
c1cc2occc2c(N2CCN3CCC[C@H]3C2)n1 [Production Example 105, 4-((8aS)-octahydropyrrolo[1,2-a]pyrazin-2-yl)furo[3,2-c]pyridine]	72.7	96.4
COc1ccc2ccnc(N3CCN4CCC[C@@H]4C3)c2c1 [Production Example 77, 1-((8aR)-octahydropyrrolo[1,2-a]pyrazin-2-yl)-7-methoxyisoquinoline]	98.9	97.9
O[C@@H]1C[C@H]2CN(c3nccc4ccoc34)CCN2C1 [Production Example 111, 7-((7R,8aS)-7-hydroxyoctahydropyrrolo[1,2-a]pyrazin-2-yl)furo[2,3-c]-pyridine]	48	95.5
Cn1c(CCCCN2CCN(c3ccc4ccccc4n3)CC2)nc2cccc(Cl)c2c1=O [Example 7-18, 5-chloro-3-methyl-2-[4-(4-quinolin-2-ylpiperazin-1-yl)butyl]-3H-quinazolin-4-one]	93.1	68.8
c1cc2ccoc2c(N2CCNCC2)n1 [Production Example 1, 7-piperazin-1-ylfuro[2,3-c]pyridine]	86.7	80.8
COc1ccc2c(C)cnc(N3CCNCC3)c2c1 [Production Example 28, 7-methoxy-4-methyl-1-piperazin-1-ylisoquinoline]	23.9	92.5
CN1CCN(c2nccc3ccc(F)cc23)CC1 [Production Example 52, 7-fluoro-1-(4-methylpiperazin-1-yl)isoquinoline]	84.1	97
Cc1cc(N2CCN(CCCSc3nc4sc5c(c4c(=O)[nH]3)CCNC5)CC2)nc2ccccc12 [Example 2-20, 2-[3-[4-(4-methylquinolin-2-yl)piperazin-1-yl]propylthio]-3,4,5,6,7,8-hexahydro-4-oxo-9-thia-1,3,7-triaza-9H-fluorene trihydrochloride]	81.6	52.8
CN1CCN(c2nccc3ccc(N(C)C)cc23)CC1 [Production Example 89, 7-dimethylamino-1-(4-methylpiperazin-1-yl)isoquinoline]	92.1	83.5
CN1CCN(c2nccc3cccnc23)CC1 [Production Example 23, 8-(4-methylpiperazin-1yl)[1,7]naphthyridine]	83.2	85.8
CCn1c(CCCCN2CCN(c3nc4ccccc4s3)CC2)nc2c(c1=O)CCCC2 [Example 7-10, 2-[4-(4-benzothiazol-2-ylpiperazin-1-yl)butyl]-3-ethyl-5,6,7,8-tetrahydro-3H-quinazolin-4-one]	16.1	7.1
CCCn1c(CCCCN2CCN(c3ccc4ccccc4n3)CC2)nc2c(c1=O)CCCC2 [Example 7-3, 3-propyl-2-[4-(4-quinolin-2-ylpiperazin-1-yl)butyl]-5,6,7,8-tetrahydro-3H-quinazolin-4-one]	85.8	84.7
CN1CCN(c2nccc3sc(Br)cc23)CC1 [Production Example 10, 2-bromo-4-(methylpiperazin-1-yl)thieno[3,2-c]pyridine]	98.5	73.8
Brc1cc2c(N3CCN4CCC[C@H]4C3)nccc2s1 [Production Example 106, 2-bromo-4-((8aS)-octahydropyrrolo[1,2-a]pyrazin-2-yl)thieno[3,2-c]-pyridine]	101	98.3
CC(C)n1c(CCCCN2CCN(c3ccc4ccccc4n3)CC2)nc2ccccc2c1=O [Example 7-15, 3-isopropyl-2-[4-(4-quinolin-2-ylpiperazin-1-yl)butyl]-3H-quinazolin-4-one]	62.1	35
COc1ccc2ccnc(N3CCN(C)CC3)c2c1 [Production Example 32, 7-methoxy-1-(4-methylpiperazin-1-yl)isoquinoline]	91.7	94.4
CSc1ccc2ccnc(N3CCN4CCC[C@H]4C3)c2c1 [Production Example 82]	99.3	90.3
